# Results: patent publication US20070298413A1, “Topoisomerase Modulators Assays” (AstraZeneca AB, priority 2003, published 2007)
# Where two headings read alike, the source gives them in different places.
# Assays:
# H. influenzae = test: minimum inhibitory concentration (MIC); type: cell-based; conditions: Haemophilus influenzae
# [1] = test system: bacteria that carry a DNA relaxation-stimulated lacZ gene on a plasmid (pRAS101, 19.4, pSB2.his); test: plate lawn technique on X-Gal medium (blue ring); type: cell-based, E. coli; conditions: spotted onto lawn of bacteria, overnight growth at 37° C.; clones pRAS101, 19.4 and pSB2.his similar
# Excerpt: The principle of the screen is based on the observation that if known gyrase inhibitors are spotted onto X-Gal medium containing bacteria that carry a DNA relaxation-stimulated lacZ gene on a plasmid, clear zones of inhibition surrounded by a blue ring are formed after overnight growth. The blue ring presumably forms at the drug concentration where optimum relaxation-stimulation of the reporter gene has occurred before the cells are killed.
# The following three clones were used: a) clone pRAS101 containing the gyrA promoter linked to the β-galactosidase gene; b) clone 19.4 (found by method described in section 3.3); and c) clone pSB2.his containing the hisD promoter linked to the β-galactosidase gene.
# Cultures were grown overnight and diluted 1:1000 in (melted) L-agar cooled to 45° C. containing 50 μg/mL Ap and 60 μg/mL X-Gal. The medium was poured into 15×150 mm petri dishes immediately. After it had solidified, known gyrase inhibitors were applied automatically onto the solid agar surface using a Tomtec Quadra 96 machine as follows: 20 μg nalidixic acid (Nx), 100 μg novobiocin (Novo), 2 μg ciprofloxacin (Cipro), 10 μg coumermycin (Cou), 2 μg cinoxacin (Cinox), 2 μg pefloxacin (Pef), 2 μg fleroxacin (Fle), 2 μg flumequine (Flu) and 2 μg norfloxacin (Nor). […]
# [2] = test system: clone 19.4 (relaxation-stimulated promoter upstream of lacZ in pSB2); test: microtiter plate β-galactosidase assay, clone 19.4; type: cell-based, E. coli; conditions: nalidixic acid 200 μg/ml, 2 hours at 37° C., treated vs control culture
# Excerpt: The T4 terminator (T4 t) and lacZ gene were inserted into a plasmid expression vector pTB244 to create the construct pSB2. In this construct, the transcription of the lacZ gene, without a promoter, is prevented by the upstream T4 terminator, such that insertion of a promoter is necessary for lacZ expression. A random E. coli DNA library was constructed by inserting Escherichia coli chromosomal Sau3A fragments into the BamHI site of the screening vector pSB2, upstream of the promoter-less lacZ gene.
# The library was transformed into the lacZ^− E. coli host strain MSD1011 (MM294 Δlac=E. coli K12 hsdR Δlac). […] Blue transformants were screened for the presence of relaxation-stimulated promoters using the microtiter plate β-galactosidase assay.
# The β-galactosidase assays were carried out in 96-well, flat bottom microtiter plates. Blue (lacZ^+) ampicillin-resistant colonies of all sizes and shades of blue were purified, inoculated into 200 μl media (L-broth containing 50 μg/ml ampicillin) and incubated overnight at 37° C. […] Before carrying out the β-galactosidase assay, absorbance WAS read automatically on the Molecular Devices Microplate Reader at 595 nm in order to measure the differences in the cell titers between control and treated cultures. […] The plates were read at 28° C. on a Molecular Devices Microplate Reader at 420 nm for 2 mins at 0.09 sec intervals.
# [3] = test system: pRAS101, gyrA promoter linked to a lacZ gene; test: microtiter plate β-galactosidase assay, pRAS101 positive control; type: cell-based, E. coli; conditions: nalidixic acid 200 μg/ml, 2 hours at 37° C.
# Experimental: The β-galactosidase assays were carried out in 96-well, flat bottom microtiter plates. Blue (lacZ^+) ampicillin-resistant colonies of all sizes and shades of blue were purified, inoculated into 200 μl media (L-broth containing 50 μg/ml ampicillin) and incubated overnight at 37° C. Cultures were then diluted 1:20 into fresh broth and incubated for 1.5 hours at 37° C. with shaking at 230 rpm to mid log phase. At this point half of each culture was transferred to a duplicate microtitre plate to which nalidixic acid had been added to give a final concentration of 200 μg/ml. Both plates were incubated at 37° C. for 2 hours to allow expression of the reporter gene that was then assayed. Before carrying out the β-galactosidase assay, absorbance WAS read automatically on the Molecular Devices Microplate Reader at 595 nm in order to measure the differences in the cell titers between control and treated cultures. 25 μl of β-galactosidase assay emulsion (prepared as follows: 5 mL ONPG (O-nitrophenyl-β-D-galactopyranodside) at 4 mg/ml, 5 mL 1× Z-buffer, 0.3 mL 1% SDS, 0.2 mL chloroform, 0.2 mL ether), was added to each well. The plates were read at 28° C. on a Molecular Devices Microplate Reader at 420 nm for 2 mins at 0.09 sec intervals. […]
compound,measurement,setting,value
CC1(C)S[C@@H]2[C@H](NC(=O)[C@H](N)c3ccccc3)C(=O)N2[C@H]1C(=O)O [ampicillin],MIC,"H. influenzae; measured MIC against H. influenzae, read-out: MIC",0.125 µg/mL
O=C(N[C@H](CO)[C@H](O)c1ccc([N+](=O)[O-])cc1)C(Cl)Cl [chloramphenicol],stimulation of the DNA relaxation-stimulated reporter gene (blue ring),[1],little to no stimulation
CO[C@@H]1[C@@H](OC(N)=O)[C@@H](O)[C@H](Oc2ccc3c(O)c(NC(=O)c4ccc(O)c(CC=C(C)C)c4)c(=O)oc3c2C)OC1(C)C [novobiocin],MIC,H. influenzae,0.125 µg/mL
CCn1cc(C(=O)O)c(=O)c2ccc(C)nc21 [nalidixic acid],relaxation stimulated transcription ratio,[2],6.1
same,stimulation ratio (average),[3],3.1 fold
